Experimental findings from ChEMBL document CHEMBL1143492, “Design, synthesis, and bioavailability evaluation of coumarin-based prodrug of meptazinol” (Bioorg Med Chem Lett, 2005) are described below.

This data set in a line: Area under curve was determined after intravenous administration (29.7 umol/kg) in rat. Format: ADME. The note with it: in vivo.

Take `CCC1(c2cccc(O)c2)CCCCN(C)C1` (stereo unspecified) [MEPTAZINOL]: the AUC came to 1990 ng·h/mL.

As a reminder, the AUC is concentration integrated over time. A low value points to less exposure.
